In ChEMBL document CHEMBL3132769, “Fragment growing to retain or alter the selectivity of anchored kinase hinge-binding fragments” (Medchemcomm, 2014):

Assays:
[1] = target: T1, Cytoplasmic tyrosine-protein kinase BMX (Homo sapiens) (UniProt P51813); test: Inhibition of human full length BMX expressed in baculovirus assessed as substrate phosphorylation using fluorescence-labelled peptides as substrate at 95 uM after 90 mins by microfluidic peptide phosphorylation assay
T1 sequence (whole entry): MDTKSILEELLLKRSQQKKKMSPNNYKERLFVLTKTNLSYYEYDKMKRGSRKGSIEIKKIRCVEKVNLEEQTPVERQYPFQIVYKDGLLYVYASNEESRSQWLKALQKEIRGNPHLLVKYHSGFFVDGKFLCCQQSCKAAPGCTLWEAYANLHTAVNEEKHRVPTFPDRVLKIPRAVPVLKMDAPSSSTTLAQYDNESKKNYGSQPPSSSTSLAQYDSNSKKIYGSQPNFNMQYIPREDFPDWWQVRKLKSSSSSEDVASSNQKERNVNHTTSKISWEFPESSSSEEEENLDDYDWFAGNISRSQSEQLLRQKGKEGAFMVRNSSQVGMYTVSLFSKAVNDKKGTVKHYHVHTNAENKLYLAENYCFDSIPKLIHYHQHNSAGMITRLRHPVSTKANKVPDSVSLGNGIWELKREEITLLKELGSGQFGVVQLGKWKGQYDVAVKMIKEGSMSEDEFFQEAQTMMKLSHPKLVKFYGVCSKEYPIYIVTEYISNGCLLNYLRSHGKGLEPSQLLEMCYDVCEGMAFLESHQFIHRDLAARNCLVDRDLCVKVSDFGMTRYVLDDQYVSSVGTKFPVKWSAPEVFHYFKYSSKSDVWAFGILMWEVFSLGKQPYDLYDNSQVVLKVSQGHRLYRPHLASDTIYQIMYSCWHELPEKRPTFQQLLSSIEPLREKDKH

[2] = target: Protein kinase C beta type (Homo sapiens) (UniProt P05771); test: Inhibition of human full length PKC beta2 expressed in baculovirus assessed as substrate phosphorylation using fluorescence-labelled peptides as substrate at 0.06 uM after 90 mins by microfluidic peptide phosphorylation assay
[3] = target: T2, Serine/threonine-protein kinase Sgk3 (Homo sapiens) (UniProt Q96BR1); test: Inhibition of human full length SGK3 expressed in baculovirus assessed as substrate phosphorylation using fluorescence-labelled peptides as substrate at 0.06 uM after 90 mins by microfluidic peptide phosphorylation assay
T2 sequence (whole entry): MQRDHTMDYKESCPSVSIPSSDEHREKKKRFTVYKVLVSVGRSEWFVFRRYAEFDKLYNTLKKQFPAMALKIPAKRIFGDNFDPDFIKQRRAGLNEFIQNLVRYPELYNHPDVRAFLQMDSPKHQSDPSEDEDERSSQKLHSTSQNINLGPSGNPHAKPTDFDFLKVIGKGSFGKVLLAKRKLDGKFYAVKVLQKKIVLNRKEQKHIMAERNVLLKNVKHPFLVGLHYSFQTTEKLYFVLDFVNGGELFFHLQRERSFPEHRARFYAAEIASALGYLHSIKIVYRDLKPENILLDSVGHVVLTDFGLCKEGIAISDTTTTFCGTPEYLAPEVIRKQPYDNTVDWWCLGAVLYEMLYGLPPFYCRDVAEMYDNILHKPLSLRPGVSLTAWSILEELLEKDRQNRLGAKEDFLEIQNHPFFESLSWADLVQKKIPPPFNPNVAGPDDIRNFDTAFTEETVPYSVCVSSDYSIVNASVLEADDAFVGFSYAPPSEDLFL

[4] = target: T2, Serine/threonine-protein kinase Sgk3 (Homo sapiens); test: Inhibition of human full length SGK3 expressed in baculovirus assessed as substrate phosphorylation using fluorescence-labelled peptides as substrate at […] after 90 mins by microfluidic peptide phosphorylation assay
[5] = target: T3, Serine/threonine-protein kinase Chk1 (Homo sapiens) (UniProt O14757); test: Inhibition of human full length CHK1 expressed in baculovirus assessed as substrate phosphorylation using fluorescence-labelled peptides as substrate at 2 uM after 90 mins by microfluidic peptide phosphorylation assay
T3 sequence (whole entry): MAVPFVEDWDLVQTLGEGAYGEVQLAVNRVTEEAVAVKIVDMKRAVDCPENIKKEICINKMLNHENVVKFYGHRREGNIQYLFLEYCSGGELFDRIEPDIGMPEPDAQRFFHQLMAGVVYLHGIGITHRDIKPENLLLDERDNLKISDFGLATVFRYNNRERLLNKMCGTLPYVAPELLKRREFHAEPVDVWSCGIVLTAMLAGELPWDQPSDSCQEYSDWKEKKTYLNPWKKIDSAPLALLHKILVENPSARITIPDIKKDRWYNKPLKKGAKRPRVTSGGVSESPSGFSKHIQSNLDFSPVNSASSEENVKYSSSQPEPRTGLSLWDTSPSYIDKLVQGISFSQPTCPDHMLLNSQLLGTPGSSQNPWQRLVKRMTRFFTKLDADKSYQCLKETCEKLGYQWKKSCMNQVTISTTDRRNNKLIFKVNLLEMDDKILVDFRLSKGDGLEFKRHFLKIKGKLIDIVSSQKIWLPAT

[6] = target: Casein kinase I isoform delta (Homo sapiens) (UniProt P48730); test: Inhibition of human CK1D catalytic domain expressed in Escherichia coli cell assessed as substrate phosphorylation using fluorescence-labelled peptides as substrate at 2 uM after 90 mins by microfluidic peptide phosphorylation assay
[7] = target: Ribosomal protein S6 kinase alpha-4 (Homo sapiens) (UniProt O75676); test: Inhibition of human full length MSK2 expressed in baculovirus assessed as substrate phosphorylation using fluorescence-labelled peptides as substrate at 8 uM after 90 mins by microfluidic peptide phosphorylation assay
[8] = target: Fibroblast growth factor receptor 3 (Homo sapiens) (UniProt P22607); test: Inhibition of human FGFR3 catalytic domain expressed in baculovirus assessed as substrate phosphorylation using fluorescence-labelled peptides as substrate at 1000 uM after 90 mins by microfluidic peptide phosphorylation assay
Sequence of Fibroblast growth factor receptor 3 (Homo sapiens) (P22607 23-806 limits assumed): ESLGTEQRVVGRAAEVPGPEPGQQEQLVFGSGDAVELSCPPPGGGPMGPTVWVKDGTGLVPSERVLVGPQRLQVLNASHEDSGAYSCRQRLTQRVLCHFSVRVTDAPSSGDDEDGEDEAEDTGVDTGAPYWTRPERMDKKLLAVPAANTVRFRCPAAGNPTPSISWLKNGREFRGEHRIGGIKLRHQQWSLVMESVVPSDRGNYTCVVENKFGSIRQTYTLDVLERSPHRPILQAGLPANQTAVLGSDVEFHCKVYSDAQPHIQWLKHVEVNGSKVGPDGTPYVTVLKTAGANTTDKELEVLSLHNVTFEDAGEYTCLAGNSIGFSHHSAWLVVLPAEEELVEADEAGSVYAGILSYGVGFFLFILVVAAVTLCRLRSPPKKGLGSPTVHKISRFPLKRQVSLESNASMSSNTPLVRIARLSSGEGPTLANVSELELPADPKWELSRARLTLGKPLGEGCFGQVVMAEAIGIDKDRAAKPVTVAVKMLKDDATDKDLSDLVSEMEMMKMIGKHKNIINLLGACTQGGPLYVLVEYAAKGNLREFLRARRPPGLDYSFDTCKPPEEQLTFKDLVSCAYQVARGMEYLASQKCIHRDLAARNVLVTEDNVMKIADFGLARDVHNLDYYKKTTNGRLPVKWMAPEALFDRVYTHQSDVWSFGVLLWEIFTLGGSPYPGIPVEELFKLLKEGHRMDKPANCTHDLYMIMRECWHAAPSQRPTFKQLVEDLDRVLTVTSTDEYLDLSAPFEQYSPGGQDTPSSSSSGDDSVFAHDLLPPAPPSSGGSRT

Sequence of Casein kinase I isoform delta (Homo sapiens) (P48730 whole entry, looked up, the tested form may be a part, canonical isoform): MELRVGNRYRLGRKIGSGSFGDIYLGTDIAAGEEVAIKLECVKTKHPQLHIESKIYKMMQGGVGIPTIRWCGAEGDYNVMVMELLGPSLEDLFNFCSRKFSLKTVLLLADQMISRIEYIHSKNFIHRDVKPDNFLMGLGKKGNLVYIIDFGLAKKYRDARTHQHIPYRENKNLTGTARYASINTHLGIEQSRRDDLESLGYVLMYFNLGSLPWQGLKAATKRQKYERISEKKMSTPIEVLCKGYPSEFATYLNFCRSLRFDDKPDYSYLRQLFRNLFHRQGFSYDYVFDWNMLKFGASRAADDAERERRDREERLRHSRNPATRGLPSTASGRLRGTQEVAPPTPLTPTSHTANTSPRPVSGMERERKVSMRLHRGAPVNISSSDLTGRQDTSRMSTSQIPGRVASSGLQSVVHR
Sequence of Ribosomal protein S6 kinase alpha-4 (Homo sapiens) (O75676 whole entry, looked up, the tested form may be a part): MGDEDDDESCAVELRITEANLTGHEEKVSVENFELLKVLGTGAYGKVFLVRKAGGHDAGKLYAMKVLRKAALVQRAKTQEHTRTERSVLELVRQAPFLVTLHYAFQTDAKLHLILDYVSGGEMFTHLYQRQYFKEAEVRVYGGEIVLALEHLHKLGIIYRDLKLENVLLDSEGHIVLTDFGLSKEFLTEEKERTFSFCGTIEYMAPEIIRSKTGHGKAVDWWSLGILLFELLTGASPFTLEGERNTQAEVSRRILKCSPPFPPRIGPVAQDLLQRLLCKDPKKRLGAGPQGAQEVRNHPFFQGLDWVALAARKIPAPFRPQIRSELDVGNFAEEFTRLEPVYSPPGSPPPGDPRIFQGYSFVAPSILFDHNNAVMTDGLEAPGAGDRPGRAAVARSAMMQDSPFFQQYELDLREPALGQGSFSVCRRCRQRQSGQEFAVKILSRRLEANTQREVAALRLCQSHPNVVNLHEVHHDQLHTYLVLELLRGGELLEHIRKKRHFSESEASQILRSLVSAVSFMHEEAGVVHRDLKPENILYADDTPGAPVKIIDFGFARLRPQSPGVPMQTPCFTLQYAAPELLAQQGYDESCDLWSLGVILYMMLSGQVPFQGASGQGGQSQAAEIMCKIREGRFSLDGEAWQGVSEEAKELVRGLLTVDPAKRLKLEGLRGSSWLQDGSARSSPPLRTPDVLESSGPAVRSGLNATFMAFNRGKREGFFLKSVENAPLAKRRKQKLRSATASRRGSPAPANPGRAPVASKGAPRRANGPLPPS
Sequence of Protein kinase C beta type (Homo sapiens) (P05771 2-671 limits assumed): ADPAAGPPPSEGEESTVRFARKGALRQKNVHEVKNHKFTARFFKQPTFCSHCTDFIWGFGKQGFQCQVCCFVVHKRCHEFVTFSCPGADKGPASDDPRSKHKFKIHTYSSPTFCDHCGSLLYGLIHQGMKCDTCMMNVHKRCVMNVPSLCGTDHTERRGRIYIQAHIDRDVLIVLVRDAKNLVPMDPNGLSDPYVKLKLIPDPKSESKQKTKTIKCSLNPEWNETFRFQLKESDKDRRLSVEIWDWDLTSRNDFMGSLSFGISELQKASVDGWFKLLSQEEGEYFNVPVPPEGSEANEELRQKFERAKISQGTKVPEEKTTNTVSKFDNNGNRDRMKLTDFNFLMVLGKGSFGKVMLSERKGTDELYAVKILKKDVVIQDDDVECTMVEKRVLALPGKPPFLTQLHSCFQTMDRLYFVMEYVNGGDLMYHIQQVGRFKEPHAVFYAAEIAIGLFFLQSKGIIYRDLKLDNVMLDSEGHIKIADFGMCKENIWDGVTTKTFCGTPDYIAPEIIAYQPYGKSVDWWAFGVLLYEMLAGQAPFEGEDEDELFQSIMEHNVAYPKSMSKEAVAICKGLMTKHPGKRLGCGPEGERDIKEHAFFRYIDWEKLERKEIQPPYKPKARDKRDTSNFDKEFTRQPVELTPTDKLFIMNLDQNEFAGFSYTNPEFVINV

NCCc1ccc(-c2ncnc3[nH]cnc23)cc1
inhibition [1]: 0%

NC1(Cc2ccc(Cl)cc2)CCN(c2ncnc3[nH]ccc23)CC1
inhibition [2]: 0% | inhibition [3]: 42.5%

COC(=O)c1cnc(Nc2cnc(C#N)cn2)cc1NCC1CCNCC1
inhibition [4]: 5%

NC1CCN(c2ncnc3[nH]ccc23)CC1
inhibition [5]: 1.5% | inhibition [6]: 0%

NCC1CCN(c2ncnc3[nH]ccc23)CC1
inhibition [7]: 50%

c1cnc2[nH]ccc2c1
inhibition [8]: 63.5%
